From the supplement of paper PMC4862054

Key:
Details in all cases: incubation time: 72 h
BT-549 [1] = assay: normalised viability (% of control), CellTiter-Blue; higher = more viable cells (about 100 = DMSO control)
Outline: (§1)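 Breast cancer cell lines in 20 µl suspension were seeded onto 384-well plates pre-loaded with compound dissolved in 5 µl medium, then incubated 72 h. CellTiter-Blue reagent (2.5 µl) was added for 2 h at 37 °C and fluorescence read at 560/590 nm. Each plate was normalised to vehicle (100) and a positive kill control (0), with Z'-factor quality control. The value is normalised viability at one listed concentration of the series.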

DU-4475 [2] = assay: as above
Outline: as §1

HDQ-P1 [3] = assay: as above
Outline: as §1

CAL-85-1 [4] = assay: as above
Outline: as §1

CAL-51 [5] = assay: as above
Outline: as §1

MFM-223 = assay: as above
Outline: as §1

HCC1937 = assay: as above
Outline: as §1

BT-474 [6] = assay: as above
Outline: as §1

CAL-148 [7] = assay: as above
Outline: as §1

Hs578T [8] = assay: as above
Outline: as §1

BT-549 [9] = assay: drug sensitivity score (DSS), CellTox Green (DSS (AUC-based score)); higher = stronger drug effect (viability inhibition or cytotoxicity); extreme values may be limits of the assay
Outline: (§2)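 Each compound occupied 5 concentrations in 10-fold steps over its own 10,000-fold range in 384-well plates, into which breast cancer cell lines were seeded as 20 µl suspension. Following 72 h of incubation, CellTox Green fluorescence (485/520 nm) was measured, and CellTiter-Glo luminescence was measured after 10 min at room temperature. Plates were individually normalised to 0.1 % DMSO and a positive kill control. From the area under the fitted dose-response curve, a drug sensitivity score was calculated.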

DU-4475 [10] = assay: as above
Outline: as §2

HDQ-P1 [11] = assay: as above
Outline: as §2

CAL-85-1 [12] = assay: as above
Outline: as §2

CAL-51 [13] = assay: as above
Outline: as §2

MDA-MB-468 = assay: as above
Outline: as §2

MDA-MB-436 = assay: as above
Outline: as §2

MDA-MB-231 = assay: as above
Outline: as §2

CAL-120 = assay: as above
Outline: as §2

HCC1143 = assay: as above
Outline: as §2

BT-474 [14] = assay: as above
Outline: as §2

CAL-148 [15] = assay: as above
Outline: as §2

Hs578T [16] = assay: as above
Outline: as §2

MDA-MB-453 = assay: as above
Outline: as §2

HCC1599 = assay: as above
Outline: as §2

COc1cc2c(Oc3ccc4[nH]c(C)cc4c3F)ncnc2cc1OCCCN1CCCC1 [Cediranib]
normalised viability [%]
Details | BT-474 [6] | BT-549 [1] | CAL-51 [5] | CAL-85-1 [4] | CAL-148 [7] | DU-4475 [2] | HCC1937 | HDQ-P1 [3] | Hs578T [8] | MFM-223
0.3 nM | – | – | 90.5 | 104 | 103 | 103 | – | 84.8 | – | –
1 nM | 109 | 108 | – | – | – | – | 66.2 | – | 110 | 99.9
3 nM | – | – | 88.7 | 96.5 | 92.8 | 80.4 | – | 90.6 | – | –
10 nM | – | – | 88.6 | 99.8 | 107 | 87.3 | – | 100 | – | –
100 nM | 101 | 104 | – | – | – | – | 78.5 | – | 106 | 87
1000 nM | 91.1 | 70.8 | – | – | – | – | 83.4 | – | 92.2 | 47.2

Details | drug sensitivity score
BT-474 [14] | 0
BT-549 [9] | 0
CAL-51 [13] | 0
CAL-85-1 [12] | 1.23
CAL-120 | 0
CAL-148 [15] | 0
DU-4475 [10] | 0
HCC1143 | 0
HCC1599 | 0
HDQ-P1 [11] | 0
Hs578T [16] | 0
MDA-MB-231 | 0
MDA-MB-436 | 0
MDA-MB-453 | 0
MDA-MB-468 | 0

CC1=C(/C=C/C(C)=C/C=C/C(C)=C/C(=O)O)C(C)(C)CCC1 [Tretinoin]
normalised viability [%]
Details | BT-474 [6] | BT-549 [1] | CAL-51 [5] | CAL-85-1 [4] | CAL-148 [7] | DU-4475 [2] | HCC1937 | HDQ-P1 [3] | Hs578T [8] | MFM-223
3 nM | – | – | 106 | 85.3 | 81.6 | 78.4 | – | 120 | – | –
10 nM | 129 | 87.5 | – | – | – | – | 106 | – | 123 | 92.6
30 nM | – | – | 94.6 | 92.2 | 89.9 | 93.1 | – | 122 | – | –
100 nM | – | – | 99.6 | 95.7 | 87.8 | 83.7 | – | 107 | – | –
1000 nM | 111 | 100 | – | – | – | – | 80.6 | – | 105 | 89.7
10000 nM | 115 | 106 | – | – | – | – | 88.1 | – | 100 | 84.3

Details | drug sensitivity score
BT-474 [14] | 0.87
BT-549 [9] | 0
CAL-51 [13] | 0
CAL-85-1 [12] | 1.14
CAL-120 | 0
CAL-148 [15] | 0
DU-4475 [10] | 0
HCC1143 | 0
HCC1599 | 0
HDQ-P1 [11] | 0
Hs578T [16] | 7.23
MDA-MB-231 | 3.64
MDA-MB-436 | 0
MDA-MB-453 | 0
MDA-MB-468 | 0

Nc1nc2[nH]cc(CCc3ccc(C(=O)N[C@@H](CCC(=O)O)C(=O)O)cc3)c2c(=O)[nH]1 [Pemetrexed]
normalised viability [%]
Details | BT-474 [6] | BT-549 [1] | CAL-51 [5] | CAL-85-1 [4] | CAL-148 [7] | DU-4475 [2] | HCC1937 | HDQ-P1 [3] | Hs578T [8] | MFM-223
3 nM | – | – | 105 | 99.6 | 95 | 106 | – | 110 | – | –
10 nM | 123 | 90.8 | – | – | – | – | 89 | – | 124 | 96.2
30 nM | – | – | 100 | 91 | 105 | 117 | – | 100 | – | –
100 nM | – | – | 107 | 101 | 106 | 108 | – | 101 | – | –
1000 nM | 112 | 90.7 | – | – | – | – | 93.4 | – | 106 | 101
10000 nM | 122 | 79.6 | – | – | – | – | 85.5 | – | 82.5 | 98.2

Details | drug sensitivity score
BT-474 [14] | 0
BT-549 [9] | 0
CAL-51 [13] | 0
CAL-85-1 [12] | 0
CAL-120 | 0
CAL-148 [15] | 0
DU-4475 [10] | 0
HCC1143 | 0
HCC1599 | 0
HDQ-P1 [11] | 0
Hs578T [16] | 0.581
MDA-MB-231 | 2.43
MDA-MB-436 | 0
MDA-MB-453 | 0
MDA-MB-468 | 1.29

N#Cc1ccc(C(c2ccc(C#N)cc2)n2cncn2)cc1 [Letrozole]
normalised viability [%]
Details | BT-474 [6] | BT-549 [1] | CAL-51 [5] | CAL-85-1 [4] | CAL-148 [7] | DU-4475 [2] | HCC1937 | HDQ-P1 [3] | Hs578T [8] | MFM-223
3 nM | – | – | 115 | 86.9 | 93.8 | 94.6 | – | 90.8 | – | –
10 nM | 105 | 83.5 | – | – | – | – | 81.8 | – | 91.8 | 58.8
30 nM | – | – | 107 | 85 | 93 | 81.4 | – | 79.5 | – | –
100 nM | – | – | 103 | 87.1 | 94.8 | 82 | – | 84.5 | – | –
1000 nM | 109 | 84 | – | – | – | – | 82.6 | – | 91 | 70.5
10000 nM | 109 | 90.5 | – | – | – | – | 82 | – | 98.9 | 49.2

Details | drug sensitivity score
BT-474 [14] | 0
BT-549 [9] | 0
CAL-51 [13] | 0
CAL-85-1 [12] | 0
CAL-120 | 0
CAL-148 [15] | 0
DU-4475 [10] | 0
HCC1143 | 0
HCC1599 | 0
HDQ-P1 [11] | 0
Hs578T [16] | 0.858
MDA-MB-231 | 0
MDA-MB-436 | 0
MDA-MB-453 | 0
MDA-MB-468 | 4.02
